{"source": "paper PMC11532403", "about": "(Signal Transduction and Targeted Therapy, 2024)", "key": {"[1]": {"experiment": "Plasma protein binding, rapid equilibrium dialysis", "assay_type": "in vitro ADME", "settings": "mouse, read-out: Plasma protein binding rate"}, "[2]": {"experiment": "Acute toxicity, single oral gavage", "settings": "both sexes, beagle, dog, in vivo, read-out: MTD, single dose"}, "RET-driven xenografts": {"system": "RET-driven xenografts", "experiment": "RET-driven xenograft models, overall", "assay_type": "in vivo, mice", "settings": "for Effective tumor suppressant dose (mg/kg): tumor-bearing mice", "description": "All procedures relating to animal handling, care, and treatment were performed according to the Beijing Laboratory Animal Management Regulations. 6-week-old male BALB/c nude mice were inoculated subcutaneously into the flank with Baf3-CCDC6-RET^WT (5*10^6 cells/ 0.1 mL/ each), Baf3-CCDC6-RET^M918T (5*10^6 cells/0.1 mL/each), Baf3-CCDC6-RET^V804M (5*10^6 cells/ 0.1 mL/ each), or HEK293T-KIF5B-RET^V804M (5*10^6 cells/ 0.1 mL/ each). Mice were randomized by tumor size into groups of 10 to 12 when tumor volume reached approximately 100-150 mm^3. […] Tumor size and body weight were measured two times each week, and tumor volume was calculated with the following formula: [length × (width)^2]/ 2. Statistical significance was calculated by using two-way ANOVA test to assess the difference in tumor volumes between the control (vehicle-treated) and treatment groups.\nSupplementary Figure S1. […] Mice bearing Baf3-CCDC6-RET^WT (a), Baf3-CCDC6-RET^M918T (b) and Baf3-CCDC6-RET^V804M (c) xenograft and time course of treatment. Data represent mean ± standard error of the mean (SEM). There were 12 mice in each group in both models. d, Mice bearing HEK293T-KIF5B-RET^V804M xenograft and time course of treatment. Data represent mean ± SEM. There were 10 mice in each group in this model. […] Statistical analysis was performed using a two-way ANOVA test. *, […]; **, p < 0.01; ***, p < 0.001; ****, p < 0.0001. Abbreviations: bid, bis in die; mc, methyl cellulose; mpk, mg/Kg."}, "hERG potassium channel": {"target": "hERG potassium channel (Homo sapiens, UniProt Q12809)", "sequence (Q12809 whole entry)": "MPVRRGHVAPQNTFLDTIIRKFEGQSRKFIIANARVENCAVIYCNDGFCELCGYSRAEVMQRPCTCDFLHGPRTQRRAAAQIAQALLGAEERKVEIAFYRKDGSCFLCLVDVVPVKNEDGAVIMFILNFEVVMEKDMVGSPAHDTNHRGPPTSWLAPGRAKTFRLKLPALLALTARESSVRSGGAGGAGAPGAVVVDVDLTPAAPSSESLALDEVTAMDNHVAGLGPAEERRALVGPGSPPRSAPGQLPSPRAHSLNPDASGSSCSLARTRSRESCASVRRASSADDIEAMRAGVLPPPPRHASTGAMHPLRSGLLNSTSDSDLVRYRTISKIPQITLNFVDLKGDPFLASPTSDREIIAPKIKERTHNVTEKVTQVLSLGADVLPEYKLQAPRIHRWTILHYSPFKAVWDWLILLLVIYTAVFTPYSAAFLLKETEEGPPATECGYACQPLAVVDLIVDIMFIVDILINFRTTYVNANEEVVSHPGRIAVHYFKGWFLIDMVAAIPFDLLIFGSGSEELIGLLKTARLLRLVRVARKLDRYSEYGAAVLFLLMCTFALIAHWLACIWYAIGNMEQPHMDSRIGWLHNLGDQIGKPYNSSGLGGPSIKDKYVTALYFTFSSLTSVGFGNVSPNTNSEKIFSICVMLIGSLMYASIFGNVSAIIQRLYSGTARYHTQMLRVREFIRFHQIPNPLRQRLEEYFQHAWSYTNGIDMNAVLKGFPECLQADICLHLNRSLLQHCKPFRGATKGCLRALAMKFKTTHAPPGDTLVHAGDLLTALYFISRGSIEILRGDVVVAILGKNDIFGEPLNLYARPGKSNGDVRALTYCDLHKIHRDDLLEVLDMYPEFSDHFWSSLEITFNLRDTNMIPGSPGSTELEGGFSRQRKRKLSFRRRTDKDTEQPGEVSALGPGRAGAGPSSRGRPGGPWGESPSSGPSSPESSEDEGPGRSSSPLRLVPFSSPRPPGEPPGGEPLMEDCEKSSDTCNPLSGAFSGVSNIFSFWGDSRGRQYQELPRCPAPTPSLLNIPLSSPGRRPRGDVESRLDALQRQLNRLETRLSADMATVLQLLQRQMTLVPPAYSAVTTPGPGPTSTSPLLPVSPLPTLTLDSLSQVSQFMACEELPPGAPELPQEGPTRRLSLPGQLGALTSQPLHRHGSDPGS", "experiment": "hERG whole-cell patch clamp", "assay_type": "cell-based", "settings": "± 368.5 nM, read-out: hERG current IC50", "excerpt": "The rapidly activating potassium channel encoded by the human ether a-go-go-related gene (hERG) is an important ion channel involved in the formation of phase 3 repolarisation of the myocardial action potential. Pharmacological blockade of hERG channels can lead to prolonged cardiac repolarisation with the electrocardiographic manifestation of a prolonged QT interval, known as long QT interval syndrome. Drug-induced delayed ventricular repolarisation can in some cases lead to a fatal arrhythmia, tip-twist ventricular tachycardia."}, "[3]": {"experiment": "Plasma protein binding, rapid equilibrium dialysis", "assay_type": "in vitro ADME", "settings": "monkey, read-out: Plasma protein binding rate (converted)"}}, "note": "Where two headings read alike, the source gives them in different places."}
{"compound": "COc1ccc(CN2C3CC2CN(c2ccc(-c4cc(N5CC(C)(O)C5)cn5ncc(C#N)c45)cn2)C3)cn1", "note": "[SY-5007, 6-(3-hydroxy-3-methylazetidin-1-yl)-4-(6-(6-((6-methoxypyridin-3-yl)methyl)-3,6-diazabicyclo[3.1.1]heptan-3-yl)pyridin-3-yl)pyrazolo[1,5-a]pyridine-3-carbonitrile]", "values": [{"measurement": "fraction unbound", "setting": "[1]", "value": 0.01}, {"measurement": "MTD", "setting": "[2]", "value": 200, "unit": "mg/kg"}, {"measurement": "Minimal effective dose (significant tumor growth inhibition in most models)", "setting": "RET-driven xenografts; mouse, in vivo", "value": 10, "unit": "mg/kg BID"}, {"measurement": "Effective tumor suppressant dose (mg/kg)", "setting": "RET-driven xenografts; daily dose of 3 mg/kg BID", "value": "6(3 mg/kg BID)"}, {"measurement": "Effective tumor suppressant dose (mg/kg)", "setting": "RET-driven xenografts; daily dose of 6 mg/kg BID", "value": "12(6 mg/kg BID)"}, {"measurement": "IC50", "setting": "hERG potassium channel", "value": 3.3, "unit": "µM"}, {"measurement": "fraction unbound", "setting": "[3]", "value": 0.023}]}
